Experimental data: ChEMBL document CHEMBL1121435, “Prostaglandin analogues possessing antinidatory effects. 2. Modification of the alpha chain” (1980)

How the values were obtained:
Type in all cases: functional
Rattus norvegicus [1] = test: Antinidatory effect was measured in the rat, relative to that of prostaglandin F2alpha (ED50 = 1.3 (0.9-1.87) mg/kg); Range 200-400
Rattus norvegicus [2] = test: Antinidatory effect was measured in the rat, relative to that of prostaglandin F2-alpha (ED50 = 1.3 (0.9-1.87)mg/kg)
Rattus norvegicus [3] = test: Antinidatory effect was measured in the rat, relative to that of prostaglandin F2-alpha (ED50 = 1.3 (0.9-1.87) mg/kg); Range 4-8
Rattus norvegicus [4] = test: Antinidatory effect was measured in the rat, relative to that of prostaglandin F2-alpha (ED50 = 1.3 (0.9-1.87) mg/kg); Range 2-4

SMILES | Relative activity (Rattus norvegicus [2]) | further results
COC(=O)/C=C/C/C=C\C[C@@H]1[C@@H](/C=C/[C@@H](O)COc2ccccc2)[C@H](O)C[C@@H]1O | – | Relative activity (Rattus norvegicus [1]): 200
O=C(O)/C=C/C/C=C\C[C@@H]1[C@@H](/C=C/[C@@H](O)COc2cccc(Cl)c2)[C@H](O)C[C@@H]1O | 200 | –
COC(=O)C/C=C/C=C\C[C@@H]1[C@@H](/C=C/[C@@H](O)COc2ccc(Cl)cc2)[C@H](O)C[C@@H]1O | – | Relative activity (Rattus norvegicus [1]): 200
COC(=O)CC=C/C=C\C[C@@H]1[C@@H](/C=C/[C@@H](O)COc2ccccc2)[C@H](O)C[C@@H]1O | 1200 | –
COC(=O)/C=C/C/C=C\C[C@@H]1[C@@H](/C=C/[C@@H](O)COc2cccc(C(F)(F)F)c2)[C@H](O)C[C@@H]1O | 100 | –
COC(=O)/C=C/C/C=C/C[C@@H]1[C@@H](/C=C/[C@@H](O)COc2cccc(Cl)c2)[C@H](O)C[C@@H]1O | 100 | –
COC(=O)C/C=C/C=C\C[C@@H]1[C@@H](/C=C/[C@@H](O)COc2cccc(C(F)(F)F)c2)[C@H](O)C[C@@H]1O | 100 | –
COC(=O)C/C=C/C=C/C[C@@H]1[C@@H](/C=C/[C@@H](O)COc2ccccc2)[C@H](O)C[C@@H]1O | 200 | –
COC(=O)/C=C/C=C/CC[C@@H]1C(/C=C/[C@@H](O)COc2cccc(Cl)c2)[C@H](O)C[C@@H]1O (some centres not stated) | – | Relative activity (Rattus norvegicus [3]): 4
COC(=O)/C=C/C=C/CC[C@@H]1C(/C=C/[C@@H](O)COc2ccccc2)[C@H](O)C[C@@H]1O (some centres not stated) | 20 | –
COC(=O)C/C=C/C=C\C[C@@H]1[C@@H](/C=C/[C@@H](O)COc2ccccc2)[C@H](O)C[C@@H]1O | 800 | –
COC(=O)CCC/C=C\C[C@@H]1[C@@H](/C=C/[C@@H](O)COc2cccc(Cl)c2)[C@H](O)C[C@@H]1O | 200 | –
COC(=O)C/C=C/C=C\C[C@@H]1[C@@H](/C=C/[C@@H](O)COc2cccc(Cl)c2)[C@H](O)C[C@@H]1O | 800 | –
COC(=O)C/C=C/CCC[C@@H]1[C@@H](/C=C/[C@@H](O)COc2ccccc2)[C@H](O)C[C@@H]1O | 40 | –
COC(=O)C(CC/C=C\C[C@@H]1[C@@H](/C=C/[C@@H](O)COc2cccc(Cl)c2)[C@H](OC2CCCCO2)C[C@@H]1OC1CCCCO1)[Se]c1ccccc1 (some centres not stated) | 1 | –
COC(=O)CC=C/C=C\C[C@@H]1[C@@H](/C=C/[C@@H](O)COc2cccc(Cl)c2)[C@H](O)C[C@@H]1O | 600 | –
COC(=O)CCC/C=C\C[C@@H]1[C@@H](/C=C/[C@@H](O)COc2ccccc2)[C@H](O)C[C@@H]1O | – | Relative activity (Rattus norvegicus [1]): 200
COC(=O)/C=C/C/C=C\C[C@@H]1[C@@H](/C=C/[C@@H](O)COc2ccc(Cl)cc2)[C@H](O)C[C@@H]1O | 100 | –
COC(=O)C/C=C/C=C/C[C@@H]1[C@@H](/C=C/[C@@H](O)COc2cccc(Cl)c2)[C@H](O)C[C@@H]1O | 100 | –
O=C(O)/C=C\CCCC[C@@H]1[C@@H](/C=C/[C@@H](O)COc2cccc(C(F)(F)F)c2)[C@H](O)C[C@@H]1O | – | Relative activity (Rattus norvegicus [4]): 2
O=C(O)/C=C/CCCC[C@@H]1[C@@H](/C=C/[C@@H](O)COc2cccc(C(F)(F)F)c2)[C@H](O)C[C@@H]1O | 4 | –
COC(=O)CCC/C=C\C[C@@H]1[C@@H](/C=C/[C@@H](O)COc2cccc(C(F)(F)F)c2)[C@H](O)C[C@@H]1O | 100 | –
